Results as given in publication PMC6358866 (International Journal of Molecular Sciences, 2019).

Tests used:
[1] = tested on: Enterococcus faecalis ATCC 29212 biofilm on CLs; assay: Lipopeptide, lens liquids and combinations against biofilms on CLs after withdrawal of the antimicrobial solution; assay type: cell-based; conditions: EF biofilm on CLs, after withdrawal and 24 h in MHB II
Protocol: (§1) Bacterial strains were obtained from the Polish Collection of Microorganisms (Polish Academy of Science, Wroclaw, Poland). Three Gram-positive and two Gram-negative strains linked with CL-related infections were chosen for the study (Staphylococus aureus ATCC 6538, Staphylococcus epidermidis ATCC 14990, Pseudomonas aeruginosa ATCC 9027, Escherichia coli ATCC 25922, and Enterococcus faecalis ATCC 29212). The bacteria were cultured in a Mueller Hinton Broth II (MHB, Biocorp, Warsaw, Poland) overnight, under aerobic conditions at 37 °C. After incubation, the liquid cultures were centrifuged (2500 rpm for 10 min) and washed with phosphoric buffer (PBS, AppliChem, Darmstadt, Germany) three times and resuspended in fresh MHB II for inoculums appropriate for the performed assays.
(§2) Bacterial biofilms were cultured on commercially available CLs (1-Day Acuvue Moist, containing Etafilcon A, obtained from Johnson and Johnson Vision Care, Jacksonsville, FL, USA). The CLs were placed in polystyrene 24-well plates (Orange Scientific, Braine-l’Alleud, Belgium) in bacterial suspensions in MHB II at initial inoculums of ca. 5 × 10^8 CFU/mL. After 24 h of incubation (aerobic conditions, 120 rpm shaking, 37 °C), all of the CLs were rinsed three times with PBS. […] After incubation, resazurin was added (final concentration per sample = 0.01%) and absorbance was measured as in the assays 4.3 and 4.4. Positive controls contained CLs with bacterial biofilms placed in pure PBS, while sterile CLs incubated in MHB II replaced with PBS served as negative controls. The experiments were performed in triplicate on three different days.
(§3) The assay was also performed for the samples where biofilms on CLs were exposed to pure CL solutions. Positive controls (100%) were biofilms on CLs in PBS, while negative controls were CLs previously incubated in pure MHB II replaced for the exposure time with PBS. After 24 h of exposure (aerobic conditions, 120 rpm shaking, 37 °C) all the solutions were removed, replaced with MHB II and the samples were incubated for another 24 h. Resazurin was then added in order to visualize the results. The results were read, calculated, and presented as in the previously-described sections.

[2] = tested on: Escherichia coli ATCC 25922 biofilm on CLs; assay: as above; assay type: cell-based; conditions: EC biofilm on CLs, all tested concentrations, after withdrawal and 24 h in MHB II
Protocol: as §1, §2, §3

[3] = tested on: Enterococcus faecalis ATCC 29212 biofilm; assay: Activity against biofilms formed on polystyrene 96-well plates, 24 h exposure, resazurin; assay type: cell-based; conditions: polystyrene plate, 24 h exposure in MHB II
Protocol: (§4) Bacterial strains were obtained from the Polish Collection of Microorganisms (Polish Academy of Science, Wroclaw, Poland). […] The bacteria were cultured in a Mueller Hinton Broth II (MHB, Biocorp, Warsaw, Poland) overnight, under aerobic conditions at 37 °C. After incubation, the liquid cultures were centrifuged (2500 rpm for 10 min) and washed with phosphoric buffer (PBS, AppliChem, Darmstadt, Germany) three times and resuspended in fresh MHB II for inoculums appropriate for the performed assays.
(§5) Bacterial suspensions were added to 96-well plates (Kartell, Noviglio, Italy) at initial inoculums of ca. 5 × 10^8 CFU/mL and incubated under aerobic conditions with shaking (120 rpm) at 37 °C for 24 h. […] After exposure, the wells were washed three times with PBS and a solution of resazurin (Sigma Aldrich, St. Louis, MO, USA) in MHB II (0.01%) was added. This cell viability reagent is metabolized by bacterial dehydrogenases upon contact with living cells. As a result, the blue dye is reduced to a pink resorufin. After 1.5 h of incubation, the absorbance was measured at 570 and 600 nm using a microplate reader (Thermo Fisher Scientific, Waltham, MA, USA). […] The metabolic activity of bacteria in the samples was measured according to the following formula:
(§6) Metabolic activity (%) = (ΔAbs of sample − ΔAbs of negative control)/(ΔAbs of positive control − ΔAbs of negative control);
(§7) ΔAbs = absorbance at 570 nm − absorbance at 600 nm;
(§8) The presented results are the means of nine results obtained on three different days.

[4] = tested on: Escherichia coli ATCC 25922 biofilm; assay: as above; assay type: cell-based; conditions: polystyrene plate, 24 h exposure in MHB II
Protocol: as §4, §5, §6, §7, §8

[5] = tested on: Pseudomonas aeruginosa ATCC 9027 biofilm; assay: as above; assay type: cell-based; conditions: lowest concentration reducing metabolic activity by at least 50 ± 5%; polystyrene plate, 24 h exposure in MHB II, resazurin
Protocol: as §4, §5, §6, §7, §8

[6] = tested on: Staphylococcus epidermidis ATCC 14990 biofilm; assay: as above; assay type: cell-based; conditions: polystyrene plate, 24 h exposure in MHB II, resazurin
Protocol: as §4, §5, §6, §7, §8

[7] = tested on: Staphylococcus epidermidis ATCC 14990 biofilm on CLs; assay: Activity of lipopeptide and CL liquids against biofilms formed on contact lenses; assay type: cell-based; conditions: SE biofilm on CLs, lipopeptide in PBS, 24 h, resazurin
Protocol: as §1, §2

[8] = tested on: Enterococcus faecalis ATCC 29212 biofilm on CLs; assay: as above; assay type: cell-based; conditions: EF biofilm on CLs, lipopeptide in PBS, 24 h, resazurin
Protocol: as §1, §2

[9] = tested on: Pseudomonas aeruginosa ATCC 9027 biofilm on CLs; assay: as above; assay type: cell-based; conditions: PA biofilm on CLs, lipopeptide in PBS, 24 h, resazurin
Protocol: as §1, §2

[10] = tested on: Escherichia coli ATCC 25922 biofilm on CLs; assay: as above; assay type: cell-based; conditions: EC biofilm on CLs, lipopeptide in PBS, 24 h, resazurin
Protocol: as §1, §2

[11] = tested on: Staphylococus aureus ATCC 6538 biofilm; assay: Activity against biofilms formed on polystyrene 96-well plates, 24 h exposure, resazurin; assay type: cell-based, Staphylococcus aureus
Protocol: as §4, §5, §6, §7, §8

[12] = tested on: human cells (keratinocytes, erythrocytes); conditions: cited from earlier work
Text: PA was also the most difficult strain to eliminate from the surface of CL in the previous study, in which we investigated amphibian peptides and short lipopeptides containing hexadecanoic acid according to their potential application as CL solution additives. The results of performed antimicrobial assays were also very promising. However, due to high toxicity towards human keratinocytes in vitro, the ocular applications of lipopeptides with hexadecanoic acid are not worth further consideration. In contrast to those lipopeptides, the compound with two residues of decanoic aci ... || The excellent antimicrobial activity was previously reported for many lipopeptides. This, along with the relatively low production costs, has encouraged many research groups to study their antimicrobial activities and design molecules with optimal properties. C16-KK-NH2 is one of such extensively studied compounds. […] Other derivatives ...

[13] = tested on: Staphylococus aureus ATCC 6538 biofilm on CLs; assay: Lipopeptide, lens liquids and combinations against biofilms on CLs after withdrawal of the antimicrobial solution; assay type: cell-based, Staphylococcus aureus; conditions: SA biofilm on CLs, lipopeptide in PBS, after withdrawal and 24 h in MHB II
Protocol: as §1
Bacterial biofilms were cultured on commercially available CLs (1-Day Acuvue Moist, containing Etafilcon A, obtained from Johnson and Johnson Vision Care, Jacksonsville, FL, USA). […] After incubation, resazurin was added (final concentration per sample = 0.01%) and absorbance was measured as in the assays 4.3 and 4.4. […]
The assay was also performed for the samples where biofilms on CLs were exposed to pure CL solutions. […] The results were read, calculated, and presented as in the previously-described sections.

[14] = lowest concentration reducing metabolic activity by at least 50 ± 5%
[15] = lowest concentration reducing metabolic activity by at least 90 ± 5%, mean of nine results

For (C10)2-KKKK-NH2 [Lipopeptide], the “effect on biofilm after removal of the agent” value [1] was “promoted bacterial growth”, the “regrowth of bacterial population after removal” value [2] was “ca. 50%” and the “MBEC 50” value [3, 14] was 16 mg/L. The “MBEC 90” value [3, 15] was 32 mg/L, the “MBEC 50” value [4, 14] was 64 mg/L and the “MBEC 90” value [4, 15] was 64 mg/L. For the same substance, the “MBEC 50” value [5] was 64 mg/L, the “MBEC 50” value [6, 14] was 16 mg/L and the “MBEC 90” value [6, 15] was 16 mg/L. The “concentration reducing metabolic activity of bacteria by at least 90%” value [7] was 8 mg/L, the “concentration reducing metabolic activity of bacteria by at least 90%” value [8] was 8 mg/L and the “concentration reducing metabolic activity by more than 90%” value [9] was 32 mg/L. The “concentration reducing metabolic activity by more than 90%” value [10] was 32 mg/L, the “reduction in the metabolic activity” value ([11]; SA biofilm on polystyrene, 24 h exposure, 32 mg/L and higher) was “over 90%” and the “MBEC 50” value ([11]; lowest concentration reducing metabolic activity by at least 50 ± 5%, polystyrene plate, 24 h exposure in MHB II, resazurin) was 8 mg/L. For the same substance, the “MBEC 90” value ([11]; lowest concentration reducing metabolic activity by at least 90 ± 5%, polystyrene plate, 24 h exposure in MHB II, resazurin, mean of nine results) was 32 mg/L, the “toxicity towards human cells in vitro” value [12] was “does not exhibit toxicity” and the “concentration permanently removing biofilm from CLs” value [13] was 16 mg/L.
